Experimental findings from patent US8916498B2, “Safening 6-(trisubstituted phenyl)-4-amino-2-pyridinecarboxylate herbicide injury on direct seeded and transplanted paddy rice” (priority 2008, dated 2014) are described below.

Each structure is given as a SMILES string. Where “and” joins values, the source holds several entries; their conditions need not be identical. Identical values can stand only once. Like-named read-outs stand apart in the source and are kept apart here.

Series [1] relates to direct seeded rice.
Series [2] deals with transplanted paddy rice. Kind of series: Safening activity of herbicide mixtures in transplanted paddy rice. In kind it is in vivo, Oryza sativa. On the procedure: (§1) The prepared mud was dispensed in 250 mL aliquots into 480 mL non-perforated plastic pots with a surface area of 91.6 cm^2 leaving a headspace of 3 cm in each pot. Rice seeds were planted in Sun Gro MetroMix 306 planting mixture, which typically has a pH of 6.0 to 6.8 and an organic matter content of about 30 percent, in plastic plug trays. Seedlings at the second or third leaf stage of growth were transplanted into 650 mL of mud contained in 960 mL non-perforated plastic pots with a surface area of 91.6 cm^2 four days prior to herbicide application. The paddy was created by filling the 3 cm headspace of the pots with water. […] Nutrients were added as Osmocote (17:6:10, Nitrogen:Phosphorus:Potassium (N:P:K)+minor nutrients) at 2 grams (g) per cup.
(§2) For technical grade compounds and safeners, a weighed amount, determined by the highest rate to be tested, was placed in an individual 120 mL glass vial and was dissolved in 20 mL of acetone to obtain concentrated stock solutions. […] The concentrated stock solutions obtained were diluted with 20 mL of acetone. Applications were made by injecting an appropriate amount of the stock solution into the aqueous layer of the paddy. […] All treated plant material received the same concentration of acetone and crop oil concentrate.
Forms of compound 1 were applied on an acid equivalent basis.

Series [3] concerns weed test plant species. Kind of series: Herbicidal safening in transplanted paddy rice, visual injury on weeds. In kind it is in vivo. To be noted: after 3 weeks; for Visual Injury (%) SCPJU Obs: Scirpus juncoides; for Visual Injury (%) CYPDI Obs: Cyperus difformis; for Visual Injury (%) MOOVA Obs: Monochoria vaginalis. The procedure:
(§3) Evaluation of Herbicidal Safening in Transplanted Paddy Rice
as §1, §2

The subject of series [4] is transplanted paddy rice. Description: Herbicidal safening in transplanted paddy rice, visual injury. In kind it is in vivo, Oryza sativa. The settings on record: after 3 weeks. On the procedure:
as §3, §1, §2

The subject of series [5] is ORYSA (rice). Kind of series: Postemergence herbicidal safening in direct seeded rice, visual injury. To be noted: for ‘M202’ ORYSA Visual Injury (%) Obs: Safener Alone, 560 g ai/ha; for ‘M202’ ORYSA Visual Injury (%) Obs / Visual Injury (%) ‘Lemont’ ORYSA Obs: after 3 weeks; for Visual Injury (%) ‘Lemont’ ORYSA Obs: alone. The source says: A=observed efficacy of active ingredient A at the same concentration as used in the mixture.
B=observed efficacy of active ingredient B at the same concentration as used in the mixture.

The test system of series [6] is SEBEX. Kind of series: Postemergence herbicidal safening in direct seeded rice, visual injury on weed. In kind it is in vivo. To be noted: alone, after 3 weeks.
For series [7], the system named is CYPDI. The series is described as above. The format is in vivo. To be noted: alone, after 3 weeks.
Series [8] concerns ECHCO. The series is described as above. The format is in vivo. The settings on record: alone, after 3 weeks.

Regarding `COc1cc(OC)nc(Oc2cccc(Oc3nc(OC)cc(OC)n3)c2C(=O)O)n1` [Bispyribac sodium], in series [1] (partner 28 g/ha alone), the “ORYSA Visual Injury (%) ‘M202’ Obs” value stood at 15% and the “ORYSA Visual Injury (%) ‘Wells’ Obs” value came out at 20%.
Consider `CCOC(=O)C(Cl)Cc1cc(-n2nc(C)n(C(F)F)c2=O)c(F)cc1Cl` (centres unmarked) [Carfentrazone-ethyl], for which the “ORYSA Visual Injury (%) ‘M202’ Obs” value in series [1] (partner 56 g/ha alone) and in series [1] (partner 112 g/ha alone) was 20% in each case. Moreover, the results for the “ORYSA Visual Injury (%) ‘Wells’ Obs” value in series [1] (partner 56 g/ha alone) and in series [1] (partner 112 g/ha alone) were 25% and 35%, respectively.
As to `CCN(CC)CC.COc1c(Cl)ccc(-c2cc(N)c(Cl)c(C(=O)O)n2)c1F` [Compound 1 TEA Salt], the “Visual Injury (%) ‘M202’ ORYSA Obs” value in series [2] (compound 35 g/ha alone) is 20%; in series [2] (compound 70 g/ha alone) it was 35% and 50%; in series [4] (herbicide 70 g ae/ha alone), 65%; in series [4] (herbicide 140 g ae/ha alone) it was 70%. The “Visual Injury (%) SCPJU Obs” value in series [3] (herbicide 70 g ae/ha alone) and in series [3] (herbicide 140 g ae/ha alone) was 100% each time. Moreover, the “Visual Injury (%) ECHCG Obs” value is 99% in series [3] (herbicide 70 g ae/ha alone) and 100% in series [3] (herbicide 140 g ae/ha alone). For the same compound, the “‘M202’ ORYSA Visual Injury (%) Obs” value came to 60% in series [4] (herbicide 70 g ae/ha alone) and 85% in series [4] (herbicide 140 g ae/ha alone).
In the case of `CCCCOC(=O)[C@@H](C)Oc1ccc(Oc2ccc(C#N)cc2F)cc1` [Cyhalofop-butyl], the “Visual Injury (%) ‘M202’ ORYSA Obs” value in series [2] (partner 90 g/ha alone) and in series [2] (partner 180 g/ha alone) was 0% each time.
For `Clc1cc(Cl)nc(-c2ccccc2)n1` [Fenclorim, 4,6-dichloro-2-phenylpyrimidine], the “‘M202’ ORYSA Visual Injury (%) Obs” value in series [5] is given as 6.7%. The “Visual Injury (%) ‘Lemont’ ORYSA Obs” value in series [5] (35 g ai/ha), in series [5] (70 g ai/ha), in series [5] (140 g ai/ha) and in series [5] (280 g ai/ha) was 0% throughout. For the same compound, the “Visual Injury (%) SEBEX Obs” value in series [6] (35 g ai/ha), in series [6] (70 g ai/ha), in series [6] (140 g ai/ha) and in series [6] (280 g ai/ha) was 0% each time. The “Visual Injury (%) CYPDI Obs” value in series [7] (35 g ai/ha), in series [7] (70 g ai/ha), in series [7] (140 g ai/ha), in series [7] (280 g ai/ha), in series [3] (safener 70 g ai/ha alone) and in series [3] (safener 140 g ai/ha alone) was 0% in each case. In addition, in series [3] (safener 280 g ai/ha alone), the “Visual Injury (%) CYPDI Obs” value is reported as 0%. Moreover, the “Visual Injury (%) ECHCO Obs” value in series [8] (35 g ai/ha), in series [8] (70 g ai/ha), in series [8] (140 g ai/ha) and in series [8] (280 g ai/ha) was 0% each time. Besides, the “Visual Injury (%) MOOVA Obs” value in series [3] (safener 70 g ai/ha alone), in series [3] (safener 140 g ai/ha alone) and in series [3] (safener 280 g ai/ha alone) was 0% each time.
As to `COC(=O)c1c(Cl)nn(C)c1S(=O)(=O)NC(=O)Nc1nc(OC)cc(OC)n1` [Halosulfuron-methyl], the “ORYSA Visual Injury (%) ‘M202’ Obs” value in series [1] (partner 26 g/ha alone) amounted to 0%; in series [1] (partner 52 g/ha alone), 15%. Moreover, the “ORYSA Visual Injury (%) ‘Wells’ Obs” value in series [1] (partner 26 g/ha alone) stood at 10%.
For `CCOC(=O)C1=NOC(c2ccccc2)(c2ccccc2)C1` [Isoxadifen-ethyl, ethyl 4,5-dihydro-5,5-diphenyl-3-isoxazole-carboxylate], the “Visual Injury (%) ‘Lemont’ ORYSA Obs” value in series [5] (17.5 g ai/ha) is 0%; in series [5] (35 g ai/ha) it was 5%; in series [5] (70 g ai/ha), 10%; in series [5] (140 g ai/ha), 5%. Further, the “Visual Injury (%) SEBEX Obs” value in series [6] (17.5 g ai/ha), in series [6] (35 g ai/ha), in series [6] (70 g ai/ha) and in series [6] (140 g ai/ha) was 0% throughout. The “Visual Injury (%) CYPDI Obs” value in series [7] (17.5 g ai/ha), in series [7] (35 g ai/ha), in series [7] (70 g ai/ha) and in series [7] (140 g ai/ha) was 0% throughout. The “Visual Injury (%) ECHCO Obs” value in series [8] (17.5 g ai/ha), in series [8] (35 g ai/ha), in series [8] (70 g ai/ha) and in series [8] (140 g ai/ha) was 0% in each case. Further, the “Visual Injury (%) SCPJU Obs” value in series [3] (safener 140 g ai/ha alone), in series [3] (safener 280 g ai/ha alone) and in series [3] (safener 560 g ai/ha alone) was 0% each time. The “Visual Injury (%) ECHCG Obs” value in series [3] (safener 140 g ai/ha alone), in series [3] (safener 280 g ai/ha alone) and in series [3] (safener 560 g ai/ha alone) was 0% in each case. Also, the “Visual Injury (%) ‘M202’ ORYSA Obs” value in series [4] (safener 140 g ai/ha alone), in series [4] (safener 280 g ai/ha alone) and in series [4] (safener 560 g ai/ha alone) was 0% in each case. In series [4] (safener 1120 g ae/ha alone), the “‘M202’ ORYSA Visual Injury (%) Obs” value is recorded as 0%.
As for `CCOC(=O)C1=NN(c2ccc(Cl)cc2Cl)C(C)(C(=O)OCC)C1` (centres unmarked) [Mefenpyr-diethyl], in series [5], the “‘M202’ ORYSA Visual Injury (%) Obs” value is 0.0%. In series [5] (safener 140 g ai/ha alone), the “ORYSA Visual Injury (%) ‘Clearfield’ Obs” value amounted to 0%, the “ORYSA Visual Injury (%) ‘Cocodrie’ Obs” value turned out to be 10%, the “ORYSA Visual Injury (%) ‘Lemont’ Obs” value was 0% and the “ORYSA Visual Injury (%) ‘M202’ Obs” value is recorded as 10%. Besides, the “‘M202’ ORYSA Visual Injury (%) Obs” value in series [4] (safener 1120 g ae/ha alone) was found to be 0%.
As to `CNc1cnn(-c2cccc(C(F)(F)F)c2)c(=O)c1Cl` [Norflurazon], in series [1] (partner 70 g/ha alone), the “ORYSA Visual Injury (%) ‘M202’ Obs” value is on record as 15%.
Take `O=c1c(Cl)c[nH]c(Cl)c1Cl` [Pyriclor]: in series [2] (partner 140 g/ha alone), the “Visual Injury (%) ‘M202’ ORYSA Obs” value came to 0%.
Turning to `CS(=O)(=O)c1ccc(C(=O)C2C(=O)CCCC2=O)c(Cl)c1` [Sulcotrione], the “ORYSA Visual Injury (%) ‘Wells’ Obs” value in series [1] (partner 280 g/ha alone) came out at 99%. In addition, the “Visual Injury (%) ‘M202’ ORYSA Obs” value in series [2] (partner 280 g/ha alone) was 10%.
